Assay results taken from patent US8394762B2, “Self-decontaminating coatings containing antimicrobial peptides” (The United States of America, as represented by the …, priority 2010, dated 2013).

Tests used:
[1] = Surface energy and contact angle of peptide coatings (sessile drop); type: physicochemical; settings: peptide in acrylic coating; for Critical Surface Energy: calculated from contact angle data; for Contact angle CH2OHCH2OH: ethylene glycol; for Contact angle CH2OHCH2OH / Contact angle CH2I2 / Contact angle H2O: 15 sec after application; for Contact angle CH2I2: methylene iodide; for Contact angle H2O: water
Procedure: Coating preparation: Films were prepared by combining 25 mg of the respective peptide with 4.95 g acrylate resin ([…]® Polycrylic®, a water borne polyacrylate resin, 50% w/w solids) with agitation. The final solution was allowed to stir for an additional 30 min and films were cast by brush onto a pre-cleaned aluminum foil. The coatings were allowed to cure at ambient conditions for 24 hours prior to microbial testing. Average thickness of films was determined by a QuaNix 4500 (Automation) paint thickness gauge. Surface Energy and Contact Angle: Surface energy and contact angle measurements were performed using a VCA 2500 video contact angle system by AST Products, Inc. Contact angle measurements using the sessile drop technique. An image was captured of the interface 15 sec after application and contact angle was measured. Due to the complex nature of coating and difficulty in ascertaining the surface segregating ability of the peptide. The surface contact angle method was used and subsequent critical surface energy calculations were based on the data obtained. In all cases the surface became more hydrophobic as indicated by the significant increase in contact angle for water. […] Upon subsequent analysis, a correlation was observed between critical surface energy and surface antimicrobial properties, especially Gram-positive, and to a much lesser extent Gram-negative.

Escherichia coli = assay: MIC testing of peptides in solution, Gram-negative; type: cell-based; settings: peptide in solution, LB media, 18 hr 37° C., 1×10^5 CFU
[2] = Surface segregation of peptide, bromophenol blue staining; type: physicochemical; settings: peptide in acrylic coating; for Molecules Peptide per mm^2 at surface of coating: absorbance at 600 nm
Procedure: (§1) Coating preparation: Films were prepared by combining 25 mg of the respective peptide with 4.95 g acrylate resin (Minwax® Polycrylic®, a water borne polyacrylate resin, 50% w/w solids) with agitation. The final solution was allowed to stir for an additional 30 min and films were cast by brush onto a pre-cleaned aluminum foil. The coatings were allowed to cure at ambient conditions for 24 hours prior to microbial testing. Average thickness of films was determined by a QuaNix 4500 (Automation) paint thickness gauge.
Surface Segregation of Peptide: Each 280 mm^2 section of the test coating was submerged in 0.5% bromophenol blue for one minute. Coatings were then removed and washed three times with 20 mL di-H2O. Bromophenol blue was then recovered from the test samples using 0.05 M HCl in ethanol. Absorbance at 600 nm was determined using a Cary 5E UV-Vis-NIR (Varian, Walnut Creek, Calif.). Beer's Law was used to determine concentration of bromophenol blue and thus concentration of peptides at the surface of the coatings.
Bromophenol blue has been used extensively to quantify the amount of protein or peptide in a solution (Bonate, Anal Biochem 1988, 175, 300-4; Schosinsky et al., Clin Chem 1987, 33, 223-6). A test method to visualize surface peptide using bromophenol blue was adapted from these solution test methods. To determine the extent which peptides were segregated to the surface of test coatings, each coating was reacted with an aqueous solution containing 0.5% bromophenol blue. This solution provided molar excess of bromophenol blue that was able to undergo an acid-base reaction with the amines of the peptide at a 1:1 ratio. The reaction was then reversed, and the bromophenol blue recovered with […]. The absorbance of this solution at 600 nm was determined and Beer's Law was used to determine the concentration of bromophenol blue (FIG. 2). This could be directly converted into number of peptides at the surface and correlated directly to the effectiveness of each coating.

[3] = test system: Staphylococcus aureus (ATCC 25923); assay: MIC testing of peptides in solution, Gram-positive; type: cell-based; settings: peptide in solution, LB media, 18 hr 37° C., 1×10^5 CFU
Text: (§2) Bacteria and media: Bacterial strains were obtained from the American Type Culture Collection (ATCC, Manassas, Va.) Staphylococcus aureus (ATCC 25923) and Escherichia coli (ATCC 11229) were used for bacterial Gram-positive and Gram-negative challenges, respectively. Luria-Bertani (LB) media (Difco Laboratories, Detroit, Mich.), prepared as per the manufacturer's specifications, was used as a bacterial growth and dilution medium for preparation of bacteria for Gram-positive and Gram-negative challenges.
Peptides: Peptides Chr-1, Chr-3, Chr-1 Truncated, and Chr-3 Truncated were obtained from Biosynthesis, Inc. (Lewisville, Tex.). Peptides were synthesized then purified by HPLC, Peptides arrived lyophilized, and were resuspended in sterile H2O. For minimum inhibitory concentration (MIC) testing, this suspension was added to media as described below. […]
Bacterial challenge: MIC testing: To determine the minimum inhibitory concentration (MIC) of peptides, compounds were weighed and dissolved in sterile water. […] Log phase cells were harvested by centrifugation, counted on a hemocytometer using bright field microscopy, pelleted by centrifugation at 4000×g for 10 min, and resuspended in a 0.5% NaCl solution at a concentration of 1×10^7 cfu/mL. […] MIC was determined to be the lowest concentration of biocide that prevented visible bacterial growth at 18 hr.

eukaryotic cells = settings: literature; cited from earlier work
[4] = test system: Staphylococcus aureus (ATCC 25923); assay: Surface testing (log kill) of peptide-containing acrylic coatings, Gram-positive; type: cell-based; settings: for Surface antimicrobial activity of coating (in words), Gram-positive / Gram Positive Sample 1 Log Kill / Gram Positive Sample 2 Log Kill / Gram Positive Sample 3 Log Kill / Gram Positive Average Log Kill: 1% (w/w) peptide in acrylic coating; for Gram Positive Sample 1 Log Kill / Gram Positive Sample 2 Log Kill / Gram Positive Sample 3 Log Kill / Gram Positive Average Log Kill: 2 hr contact; for Gram Positive Sample 1 Log Kill / Gram Positive Sample 2 Log Kill / Gram Positive Sample 3 Log Kill: 1×10^5 bacteria; for Gram Positive Average Log Kill: average of triplicate
Text: as §2
(§3) Peptides: Peptides Chr-1, Chr-3, Chr-1 Truncated, and Chr-3 Truncated were obtained from Biosynthesis, Inc. (Lewisville, Tex.). Peptides were synthesized then purified by HPLC, Peptides arrived lyophilized, and were resuspended in sterile H2O. For minimum inhibitory concentration (MIC) testing, this suspension was added to media as described below. For surface challenges, this peptide mixture was added to a commercial acrylate coating resin system at 1% (w/w) solids based on the solids of the polymer.
as §1
(§4) Surface testing: Bacteria were grown at 37° C. Log phase cells were harvested by centrifugation, counted on a hemocytometer using bright field microscopy, pelleted by centrifugation at 4000×g for 10 min, and resuspended in a 0.5% NaCl solution at a concentration of 1×10^7 cfu/mL. To prevent desiccation of the bacteria during testing, a hydration chamber was prepared. The chamber consisted of a sterile 3×3 in gauze pad placed in the bottom of a sterile 150×15 mm Petri dish. The gauze pad was saturated with 5 mL of sterile water and the test samples placed on top. A 10 μL aliquot containing, 1×10^5 bacteria was added to each test coating (280 mm^2), and then placed in a hydration chamber at room temperature. After 2 hr of incubation, the remaining bacteria were recovered by placing the coating in a tube containing 5 mL sterile LB media, followed by 30 sec of vortexing. Serial dilutions were carried out, and incubated for 18 hr at 37° C. with agitation. Following incubation, the cultures were examined for the presence of turbidity, indicating bacterial growth. Each coating was tested in triplicate. […] All bacterial challenge procedures were conducted using standard aseptic techniques in a BSL-2 hood.

[5] = test system: Gram-positive and Gram-negative bacteria; settings: both Gram-positive and Gram-negative bacteria; Iijima et al. 2003; cited from earlier work
[6] = test system: Escherichia coli (ATCC 11229); assay: Surface testing (log kill) of peptide-containing acrylic coatings, Gram-negative; type: cell-based; settings: for Gram Negative Sample 1 Log Kill / Gram Negative Sample 2 Log Kill / Gram Negative Sample 3 Log Kill / Gram Negative Average Log Kill: 2 hr contact; for Gram Negative Sample 1 Log Kill / Gram Negative Sample 2 Log Kill / Gram Negative Sample 3 Log Kill: 1×10^5 bacteria; for Gram Negative Average Log Kill: average of triplicate
Text: as §2, §3, §1, §4

[7] = 1% (w/w) peptide in acrylic coating

Row | Substance | Critical Surface Energy [1] [dynes/cm] | Contact angle CH2OHCH2OH [1] | Contact angle CH2I2 [1] | Contact angle H2O [1] | MIC Gram − (Escherichia coli) | Molecules Peptide per mm^2 at surface of coating [2] | MIC Gram + [3] | Toxicity to eukaryotic cells (eukaryotic cells) | Surface antimicrobial activity of coating (in words), Gram-positive [4] | Gram Positive Sample 1 Log Kill [4] | Gram Positive Sample 2 Log Kill [4] | Gram Positive Sample 3 Log Kill [4] | Gram Positive Average Log Kill [4] | Antimicrobial activity concentration [5] | Gram Negative Sample 1 Log Kill [6, 7] | Gram Negative Sample 2 Log Kill [6, 7] | Gram Negative Sample 3 Log Kill [6, 7] | Gram Negative Average Log Kill [6, 7] | other results
1 | Chr-1: Full length antimicrobial peptide Chrysophsin-1 from gills of red sea bream Chrysophrys major, SEQ. ID. NO. 1 (FFWLIKGAIHAGKAIHGLIHRRRH; Chrysophrys major) | 131.6 | 60.77(±3.35) | 69.45(±4.81) | 53.05(±4.04) | 0.000667 mg of peptide per mL of culture media | 6.8 × 10^13 Molecules Peptide per mm^2 | 0.00667 mg of peptide per mL of culture media | varying levels of toxicity | high activity | 4 | 4 | 3 | 3.6667 | low micromolar | 1 | 2 | 1 | 1.3333 | Reduction of bacterial loads by coating ([4]; Gram-positive and Gram-negative together): at least 90%; Reduction of Gram-positive bacteria by peptide containing coating ([4]; after two hours): 99.9%; Surface antimicrobial activity of coating (in words), Gram-negative [6, 7]: high activity; Reduction of Gram-negative bacteria by peptide containing coating ([6]; after two hours): 90%
2 | Chr-3: Full length antimicrobial peptide Chrysophsin-3 from gills of red sea bream Chrysophrys major, SEQ. ID. NO. 3 (FIGLLISAGKAIHDLIRRRH; Chrysophrys major) | 97.22 | 63.02(±3.51) | 64.57(±3.52) | 43.88(±5.01) | 0.0667 mg of peptide per mL of culture media | 1.9 × 10^13 Molecules Peptide per mm^2 | 0.00667 mg of peptide per mL of culture media | varying levels of toxicity | moderate activity | 1 | 1 | 1 | 1 | low micromolar | 0 | 0 | 0 | 0 | Peptide at surface of coating, % of total peptide [2]: (~1%)
